In brackets after ≈: the same amount, converted by molar mass.
test system: not listed separately; assay: Selectivity ratio of cytotoxicity against human WI38 cells to MIC for Pseudomonas aeruginosa PAO1; assay type: toxicity, cell-based; conditions: not given

SMILES	selectivity ratio
CCN(CC)C(=O)c1cc2cc(NC(=O)c3cc(NC(=O)CCCOc4cc5c(cc4OC)C(=O)N4CCC[C@H]4C=N5)cn3C)ccc2o1	10

test system: Klebsiella pneumoniae; assay: Antimicrobial activity against Klebsiella pneumoniae M6 by microdilution broth method; assay type: functional; conditions: not given

SMILES	MIC
CCN(CC)C(=O)c1cc2cc(NC(=O)c3cc(NC(=O)CCCOc4cc5c(cc4OC)C(=O)N4CCC[C@H]4C=N5)cn3C)ccc2o1	8 µg/mL (≈ 12 µM)

test system: Enterococcus faecalis; assay: Antibacterial activity against vancomycin sensitive Enterococcus faecalis NCTC 775 by microdilution broth method; assay type: functional; conditions: not given

SMILES	MIC
CCN(CC)C(=O)c1cc2cc(NC(=O)c3cc(NC(=O)CCCOc4cc5c(cc4OC)C(=O)N4CCC[C@H]4C=N5)cn3C)ccc2o1	0.25 µg/mL (≈ 0.374 µM)

test system: Enterococcus faecium; assay: Antibacterial activity against vancomycin resistant Enterococcus faecium NCTC 12204 by microdilution broth method; assay type: functional; conditions: not given

SMILES	MIC
CCN(CC)C(=O)c1cc2cc(NC(=O)c3cc(NC(=O)CCCOc4cc5c(cc4OC)C(=O)N4CCC[C@H]4C=N5)cn3C)ccc2o1	≤ 0.125 µg/mL

test system: Staphylococcus aureus; assay: Antibacterial activity against methicillin resistant Staphylococcus aureus NCTC 13616 by microdilution broth method; assay type: functional; conditions: not given

SMILES	MIC
CCN(CC)C(=O)c1cc2cc(NC(=O)c3cc(NC(=O)CCCOc4cc5c(cc4OC)C(=O)N4CCC[C@H]4C=N5)cn3C)ccc2o1	0.25 µg/mL (≈ 0.374 µM)

test system: DNA; assay: Stabilization of 5'-FAM-TAT-ATA-TAG-ATA-TTT-TTT-TAT-CTA-TAT-ATA-3'-TAMRA DNA (unknown origin) assessed as reduction in change in melting temperature at 1:1 to 5:1 ligand to DNA ratio measured after 3 hrs by FRET-based assay relative to control; assay type: ADME, nucleic-acid assay; conditions: not given

SMILES	fold change (FC)
CCN(CC)C(=O)c1cc2cc(NC(=O)c3cc(NC(=O)CCCOc4cc5c(cc4OC)C(=O)N4CCC[C@H]4C=N5)cn3C)ccc2o1	3 to 4

test system: Acinetobacter baumannii; assay: Antimicrobial activity against Acinetobacter baumannii ATCC 17978 by microdilution broth method; assay type: functional; conditions: not given

SMILES	MIC
CCN(CC)C(=O)c1cc2cc(NC(=O)c3cc(NC(=O)CCCOc4cc5c(cc4OC)C(=O)N4CCC[C@H]4C=N5)cn3C)ccc2o1	4 µg/mL (≈ 5.98 µM)

test system: not listed separately; assay: Selectivity ratio of cytotoxicity against human WI38 cells to MIC for multidrug-resistant Pseudomonas aeruginosa NCTC 13437; assay type: toxicity, cell-based; conditions: not given

SMILES	selectivity ratio
CCN(CC)C(=O)c1cc2cc(NC(=O)c3cc(NC(=O)CCCOc4cc5c(cc4OC)C(=O)N4CCC[C@H]4C=N5)cn3C)ccc2o1	10

test system: not listed separately; assay: Selectivity ratio of cytotoxicity against human WI38 cells to MIC for multidrug-resistant Acinetobacter baumannii AYE; assay type: toxicity, cell-based; conditions: not given

SMILES	selectivity ratio
CCN(CC)C(=O)c1cc2cc(NC(=O)c3cc(NC(=O)CCCOc4cc5c(cc4OC)C(=O)N4CCC[C@H]4C=N5)cn3C)ccc2o1	10

test system: not listed separately; assay: Selectivity ratio of cytotoxicity against human WI38 cells to MIC for vancomycin resistant Enterococcus faecalis NCTC 12201; assay type: toxicity, cell-based; conditions: not given

SMILES	selectivity ratio
CCN(CC)C(=O)c1cc2cc(NC(=O)c3cc(NC(=O)CCCOc4cc5c(cc4OC)C(=O)N4CCC[C@H]4C=N5)cn3C)ccc2o1	100

test system: not listed separately; assay: Cytotoxicity against human WI38 cells assessed as cell viability at 20 uM measured after 24 hrs by MTT assay relative to control; assay type: cell-based, WI-38; conditions: read-out: Activity

SMILES	viability at 24 h, 20 µM
CCN(CC)C(=O)c1cc2cc(NC(=O)c3cc(NC(=O)CCCOc4cc5c(cc4OC)C(=O)N4CCC[C@H]4C=N5)cn3C)ccc2o1	> 85%

test system: not listed separately; assay: Selectivity ratio of cytotoxicity against human WI38 cells to MIC for methicillin resistant Staphylococcus aureus NCTC 13277; assay type: toxicity, cell-based; conditions: not given

SMILES	selectivity ratio
CCN(CC)C(=O)c1cc2cc(NC(=O)c3cc(NC(=O)CCCOc4cc5c(cc4OC)C(=O)N4CCC[C@H]4C=N5)cn3C)ccc2o1	100

test system: not listed separately; assay: Selectivity ratio of cytotoxicity against human WI38 cells to MIC for methicillin sensitive Staphylococcus aureus NCTC 6571; assay type: toxicity, cell-based; conditions: not given

SMILES	selectivity ratio
CCN(CC)C(=O)c1cc2cc(NC(=O)c3cc(NC(=O)CCCOc4cc5c(cc4OC)C(=O)N4CCC[C@H]4C=N5)cn3C)ccc2o1	100

test system: not listed separately; assay: Selectivity ratio of cytotoxicity against human WI38 cells to MIC for vancomycin sensitive Enterococcus faecalis NCTC 775; assay type: toxicity, cell-based; conditions: not given

SMILES	selectivity ratio
CCN(CC)C(=O)c1cc2cc(NC(=O)c3cc(NC(=O)CCCOc4cc5c(cc4OC)C(=O)N4CCC[C@H]4C=N5)cn3C)ccc2o1	100

test system: Enterococcus faecalis; assay: Antibacterial activity against vancomycin resistant Enterococcus faecalis NCTC 12201 by microdilution broth method; assay type: functional; conditions: not given

SMILES	MIC
CCN(CC)C(=O)c1cc2cc(NC(=O)c3cc(NC(=O)CCCOc4cc5c(cc4OC)C(=O)N4CCC[C@H]4C=N5)cn3C)ccc2o1	≤ 0.125 µg/mL

test system: DNA; assay: Stabilization of 5'-FAM-TAT-AGA-TAT-AGA-TAT-TTT-ATA-TCT-ATA-TCT-ATA-3'-TAMRA DNA (unknown origin) assessed as reduction in change in melting temperature at 1:1 to 5:1 ligand to DNA ratio measured after 3 hrs by FRET-based assay relative to control; assay type: ADME, nucleic-acid assay; conditions: not given

SMILES	fold change (FC)
CCN(CC)C(=O)c1cc2cc(NC(=O)c3cc(NC(=O)CCCOc4cc5c(cc4OC)C(=O)N4CCC[C@H]4C=N5)cn3C)ccc2o1	3 to 4

test system: not listed separately; assay: Selectivity ratio of cytotoxicity against human WI38 cells to MIC for Klebsiella pneumoniae M6; assay type: toxicity, cell-based; conditions: not given

SMILES	selectivity ratio
CCN(CC)C(=O)c1cc2cc(NC(=O)c3cc(NC(=O)CCCOc4cc5c(cc4OC)C(=O)N4CCC[C@H]4C=N5)cn3C)ccc2o1	10

test system: not listed separately; assay: Selectivity ratio of cytotoxicity against human WI38 cells to MIC for Acinetobacter baumannii ATCC 17978; assay type: toxicity, cell-based; conditions: not given

SMILES	selectivity ratio
CCN(CC)C(=O)c1cc2cc(NC(=O)c3cc(NC(=O)CCCOc4cc5c(cc4OC)C(=O)N4CCC[C@H]4C=N5)cn3C)ccc2o1	10

test system: not listed separately; assay: Selectivity ratio of cytotoxicity against human WI38 cells to MIC for vancomycin resistant Enterococcus faecium NCTC 12204; assay type: toxicity, cell-based; conditions: not given

SMILES	selectivity ratio
CCN(CC)C(=O)c1cc2cc(NC(=O)c3cc(NC(=O)CCCOc4cc5c(cc4OC)C(=O)N4CCC[C@H]4C=N5)cn3C)ccc2o1	100

test system: Pseudomonas aeruginosa; assay: Antimicrobial activity against Pseudomonas aeruginosa PAO1 by microdilution broth method; assay type: functional; conditions: not given

SMILES	MIC
CCN(CC)C(=O)c1cc2cc(NC(=O)c3cc(NC(=O)CCCOc4cc5c(cc4OC)C(=O)N4CCC[C@H]4C=N5)cn3C)ccc2o1	128 µg/mL (≈ 191 µM)

test system: Staphylococcus aureus; assay: Antibacterial activity against methicillin resistant Staphylococcus aureus NCTC 13277 by microdilution broth method; assay type: functional; conditions: not given

SMILES	MIC
CCN(CC)C(=O)c1cc2cc(NC(=O)c3cc(NC(=O)CCCOc4cc5c(cc4OC)C(=O)N4CCC[C@H]4C=N5)cn3C)ccc2o1	0.5 µg/mL (≈ 0.748 µM)

test system: not listed separately; assay: Selectivity ratio of cytotoxicity against human WI38 cells to MIC for methicillin resistant Staphylococcus aureus NCTC 13616; assay type: toxicity, cell-based; conditions: not given

SMILES	selectivity ratio
CCN(CC)C(=O)c1cc2cc(NC(=O)c3cc(NC(=O)CCCOc4cc5c(cc4OC)C(=O)N4CCC[C@H]4C=N5)cn3C)ccc2o1	100

test system: Acinetobacter baumannii; assay: Antimicrobial activity against multidrug-resistant Acinetobacter baumannii AYE by microdilution broth method; assay type: functional; conditions: not given

SMILES	MIC
CCN(CC)C(=O)c1cc2cc(NC(=O)c3cc(NC(=O)CCCOc4cc5c(cc4OC)C(=O)N4CCC[C@H]4C=N5)cn3C)ccc2o1	4 µg/mL (≈ 5.98 µM)

test system: Klebsiella pneumoniae; assay: Antimicrobial activity against multidrug-resistant Klebsiella pneumoniae NCTC 13368 by microdilution broth method; assay type: functional; conditions: not given

SMILES	MIC
CCN(CC)C(=O)c1cc2cc(NC(=O)c3cc(NC(=O)CCCOc4cc5c(cc4OC)C(=O)N4CCC[C@H]4C=N5)cn3C)ccc2o1	64 µg/mL (≈ 95.7 µM)

test system: Pseudomonas aeruginosa; assay: Antimicrobial activity against multidrug-resistant Pseudomonas aeruginosa NCTC 13437 by microdilution broth method; assay type: functional; conditions: not given

SMILES	MIC
CCN(CC)C(=O)c1cc2cc(NC(=O)c3cc(NC(=O)CCCOc4cc5c(cc4OC)C(=O)N4CCC[C@H]4C=N5)cn3C)ccc2o1	32 µg/mL (≈ 47.9 µM)

test system: Staphylococcus aureus; assay: Antibacterial activity against methicillin sensitive Staphylococcus aureus NCTC 6571 by microdilution broth method; assay type: functional; conditions: not given

SMILES	MIC
CCN(CC)C(=O)c1cc2cc(NC(=O)c3cc(NC(=O)CCCOc4cc5c(cc4OC)C(=O)N4CCC[C@H]4C=N5)cn3C)ccc2o1	≤ 0.125 µg/mL

test system: not listed separately; assay: Selectivity ratio of cytotoxicity against human WI38 cells to MIC for multidrug-resistant Klebsiella pneumoniae NCTC 13368; assay type: toxicity, cell-based; conditions: not given

SMILES	selectivity ratio
CCN(CC)C(=O)c1cc2cc(NC(=O)c3cc(NC(=O)CCCOc4cc5c(cc4OC)C(=O)N4CCC[C@H]4C=N5)cn3C)ccc2o1	10
